Measurements: patent US4321265A, “7α-Methoxycephalosporins” (Toyama Chemical Co., Ltd., priority 1977, dated 1982)
≈ marks a conversion by molar mass, not a printed value.

Columns and labels:
[1] = system: Penicillinase (E. coli TK-3); assay: Stability to β-lactamase, iodometry (Perret); type: biochemical; conditions: E. coli TK-3 penicillinase; PCG = 100; 30° C., pH 7.0
Protocol: (§1) The stability to β-lactamase was examined by iodometry at 30° C. by the method of Perret (Perret, C. J., "Iodometric assay of penicillinase", Nature, 174, 1012-1013 (1954)), except that a 0.1 M phosphate buffer solution (pH 7.0) was used in place of the 0.2 M phosphate buffer solution (pH 6.5). The stability of each compound was shown in Table 2 in terms of relative degree of hydrolysis, assuming the stability of Cephaloridin (CER) to cephalosporinase as 100 and the stability of Penicillin G (PCG) to penicillinase as 100.

[2] = molecular target: T1, Cephalosporinase (S. marcescens W-8) (Serratia marcescens, UniProt P18539); assay: Stability to β-lactamase, iodometry (Perret); type: biochemical; conditions: S. marcescens W-8 cephalosporinase; CER = 100; 30° C., pH 7.0
T1 construct: native preparation, details not in excerpts
Protocol: as §1

[3] = system: Penicillinase (K. pneumoniae Y-4); assay: Stability to β-lactamase, iodometry (Perret); type: biochemical; conditions: K. pneumoniae Y-4 penicillinase; PCG = 100; 30° C., pH 7.0
Protocol: as §1

[4] = molecular target: T2, Cephalosporinase (E. coli GN-5482) (Escherichia coli, UniProt P00811); assay: Stability to β-lactamase, iodometry (Perret); type: biochemical; conditions: E. coli GN-5482 cephalosporinase; CER = 100; 30° C., pH 7.0
T2 construct: native preparation, details not in excerpts
Protocol: as §1

[5] = system: Penicillinase (P. aeruginosa GN-3379); assay: Stability to β-lactamase, iodometry (Perret); type: biochemical; conditions: P. aeruginosa GN-3379 penicillinase; PCG = 100; 30° C., pH 7.0
Protocol: as §1

[6] = system: Ser. marcescens W-35; assay: Minimum inhibitory concentration (MIC), Heart Infusion agar; type: cell-based; conditions: Serratia marcescens, W35, 20 h, Ser. marcescens W-35; 10^6 cells/ml; 20 hours, 37° C. (Table 1); read-out: minimum inhibitory concentration (MIC)
Protocol: (§2) Antibacterial activities of the representative compounds (Ib) of the 7α-methoxycephalosporins according to this invention are shown in Table 1. [drawing 20]
The figures given in Table 1 represent the minimum inhibitory concentration (MIC in mcg/ml) of each compound, which was determined according to the method described in "Chemotherapy (Society of Chemotherapy, Japan), Vol. 16, 98-99 (1968)": A culture obtained by cultivating the test bacterium in a Heart Infusion broth (Eiken Kagaku Co.) was inoculated into a Heart Infusion agar medium (Eiken Kagaku Co.). After 20 hours of the incubation at 37° C., the growth of the bacterium was inspected to determine the minimum inhibitory concentration (MIC in mcg/ml). […]
(§3) (1) Minimum inhibitory concentration (MIC in mcg/ml).

[7] = system: S. aureus F-19 (Penicillinase-producing bacterium); assay: as above; type: cell-based; conditions: Staphylococcus aureus; S. aureus F-19; 10^6 cells/ml; 20 hours, 37° C.; read-out: minimum inhibitory concentration (MIC)
Protocol: as §2
(§4) The figures given in Table 1 represent the minimum inhibitory concentration (MIC in mcg/ml) of each compound, which was determined according to the method described in "Chemotherapy (Society of Chemotherapy, Japan), Vol. 16, 98-99 (1968)": A culture obtained by cultivating the test bacterium in a Heart Infusion broth (Eiken Kagaku Co.) was inoculated into a Heart Infusion agar medium (Eiken Kagaku Co.). After 20 hours of the incubation at 37° C., the growth of the bacterium was inspected to determine the minimum inhibitory concentration (MIC in mcg/ml). The inoculation rate of the bacterium was 10^4 cells/plate (10^6 cells/ml).
as §3

[8] = system: Ps. aeruginosa IFO-3445; assay: as above; type: cell-based; conditions: Pseudomonas aeruginosa, IFO3445; Ps. aeruginosa IFO-3445; 10^6 cells/ml; 20 hours, 37° C.; read-out: minimum inhibitory concentration (MIC)
Protocol: as §2, §4, §3

[9] = system: Ps. aeruginosa S-68; assay: as above; type: cell-based; conditions: Pseudomonas aeruginosa, S68; Ps. aeruginosa S-68; 10^6 cells/ml; 20 hours, 37° C.; read-out: minimum inhibitory concentration (MIC)
Protocol: as §2, §4, §3

[10] = system: C. freundii GN-346 (Cephalosporinase-producing bacterium); assay: as above; type: cell-based; conditions: Citrobacter freundii, GN346; C. freundii GN-346; 10^6 cells/ml; 20 hours, 37° C.; read-out: minimum inhibitory concentration (MIC)
Protocol: as §2, §4, §3

[11] = system: Ent. cloacae IID977; assay: as above; type: cell-based; conditions: Enterobacter cloacae; Ent. cloacae IID977; 10^6 cells/ml; 20 hours, 37° C.; read-out: minimum inhibitory concentration (MIC)
Protocol: as §2, §4, §3

[12] = system: K. pneumoniae Y-50; assay: as above; type: cell-based; conditions: Klebsiella pneumoniae, Y50; K. pneumoniae Y-50; 10^6 cells/ml; 20 hours, 37° C.; read-out: minimum inhibitory concentration (MIC)
Protocol: as §2, §4, §3

[13] = system: Citrobacter N-7; assay: as above; type: cell-based; conditions: N7; Citrobacter N-7; 10^6 cells/ml; 20 hours, 37° C.; read-out: minimum inhibitory concentration (MIC)
Protocol: as §2, §4, §3

[14] = system: Ser. marcescens IID620; assay: as above; type: cell-based; conditions: Serratia marcescens; Ser. marcescens IID620; 10^6 cells/ml; 20 hours, 37° C.; read-out: minimum inhibitory concentration (MIC)
Protocol: as §2, §4, §3

[15] = system: Prot. vulgaris GN-76; assay: as above; type: cell-based; conditions: Proteus vulgaris, GN76; Prot. vulgaris GN-76; 10^6 cells/ml; 20 hours, 37° C.; read-out: minimum inhibitory concentration (MIC)
Protocol: as §2, §4, §3

[16] = system: Acinetobacter caloaceticus A-6; assay: as above; type: cell-based; conditions: A6; Acinetobacter caloaceticus A-6; 10^6 cells/ml; 20 hours, 37° C.; read-out: minimum inhibitory concentration (MIC)
Protocol: as §2, §4, §3

[17] = system: Klebsiella spp. Y-72; assay: as above; type: cell-based; conditions: SPP.Y72; Klebsiella spp. Y-72; 10^6 cells/ml; 20 hours, 37° C.; read-out: minimum inhibitory concentration (MIC)
Protocol: as §2, §4, §3

[18] = system: Ser. marcescens W-8; assay: as above; type: cell-based; conditions: Serratia marcescens, W8; Ser. marcescens W-8; 10^6 cells/ml; 20 hours, 37° C.; read-out: minimum inhibitory concentration (MIC)
Protocol: as §2, §4, §3

[19] = system: E. coli NIHJ; assay: as above; type: cell-based; conditions: Escherichia coli; E. coli NIHJ; 10^6 cells/ml; 20 hours, 37° C.; read-out: minimum inhibitory concentration (MIC)
Protocol: as §2, §4, §3

T2 sequence (P00811 20-377): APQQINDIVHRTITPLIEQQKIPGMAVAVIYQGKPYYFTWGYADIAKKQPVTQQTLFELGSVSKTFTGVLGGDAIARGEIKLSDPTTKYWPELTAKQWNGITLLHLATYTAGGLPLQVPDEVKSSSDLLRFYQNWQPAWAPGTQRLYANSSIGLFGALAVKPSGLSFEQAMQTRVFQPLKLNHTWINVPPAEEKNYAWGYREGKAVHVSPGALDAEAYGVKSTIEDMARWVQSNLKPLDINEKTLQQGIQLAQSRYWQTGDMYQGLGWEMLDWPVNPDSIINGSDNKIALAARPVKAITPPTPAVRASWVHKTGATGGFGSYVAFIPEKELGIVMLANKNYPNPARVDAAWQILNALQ
T1 sequence (P18539 22-376): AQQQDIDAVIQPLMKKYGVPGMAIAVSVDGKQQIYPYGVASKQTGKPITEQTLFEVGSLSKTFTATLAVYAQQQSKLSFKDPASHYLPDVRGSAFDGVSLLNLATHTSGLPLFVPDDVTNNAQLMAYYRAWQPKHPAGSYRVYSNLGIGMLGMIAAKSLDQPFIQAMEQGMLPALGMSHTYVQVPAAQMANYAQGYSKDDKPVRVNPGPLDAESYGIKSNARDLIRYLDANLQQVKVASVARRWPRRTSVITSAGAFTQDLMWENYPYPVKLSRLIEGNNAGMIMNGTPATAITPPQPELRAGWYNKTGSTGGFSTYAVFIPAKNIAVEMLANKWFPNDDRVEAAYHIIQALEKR

| Compound | Stability to β-lactamase, relative degree of hydrolysis [1] | Stability to β-lactamase, relative degree of hydrolysis [2] | Stability to β-lactamase, relative degree of hydrolysis [3] | Stability to β-lactamase, relative degree of hydrolysis [4] | Stability to β-lactamase, relative degree of hydrolysis [5] | MIC [6] | MIC [7] | MIC [8] | MIC [9] | MIC [10] | MIC [11] | MIC [12] | MIC [13] | MIC [14] | MIC [15] | MIC [16] | MIC [17] | MIC [18] | MIC [19] |
| --- | --- | --- | --- | --- | --- | --- | --- | --- | --- | --- | --- | --- | --- | --- | --- | --- | --- | --- | --- |
| O=C(Cc1cccs1)N[C@@H]1C(=O)N2C(C(=O)[O-])=C(C[n+]3ccccc3)CS[C@H]12 [CER, Cephaloridin] | 115 | 100 | 41 | 100 | 18 | – | – | – | – | – | – | – | – | – | – | – | – | – | – |
| Cc1nnc(SCC2=C(C(=O)O)N3C(=O)[C@@H](NC(=O)Cn4cnnn4)[C@H]3SC2)s1 [CEZ, Cefazolin] | 21 | 94 | 4 | 130 | 2 | – | – | – | – | – | – | – | – | – | – | – | – | – | – |
| CCN1CCN(C(=O)NC(C(=O)N[C@]2(OC)C(=O)N3C(C(=O)O)=C(CSc4nnnn4CC(=O)O)CS[C@@H]32)c2cccs2)C(=O)C1=O (some centres unmarked) | – | – | – | – | – | 100 µg/mL (≈ 141 µM) | 6.25 µg/mL (≈ 8.81 µM) | 25 µg/mL (≈ 35.2 µM) | 50 µg/mL (≈ 70.4 µM) | 50 µg/mL (≈ 70.4 µM) | 25 µg/mL (≈ 35.2 µM) | 6.25 µg/mL (≈ 8.81 µM) | 1.56 µg/mL (≈ 2.2 µM) | 0.78 µg/mL (≈ 1.1 µM) | 0.78 µg/mL (≈ 1.1 µM) | 25 µg/mL (≈ 35.2 µM) | 25 µg/mL (≈ 35.2 µM) | 50 µg/mL (≈ 70.4 µM) | ≤ 0.1 µg/mL |
| CCN1CCN(C(=O)N[C@@H](C(=O)N[C@]2(OC)C(=O)N3C(C(=O)O)=C(COC(C)=O)CS[C@@H]32)c2cccs2)C(=O)C1=O [OCOCH3, 7β-[D(-)-α-(4-ethyl-2,3-dioxo-1-piperazinecarboxamido)-α-(2-thienyl)-acetamido]-7α-methoxy-3-acetoxymethyl-Δ^3-cephem-4-carboxylic acid] | – | – | – | – | – | 50 µg/mL (≈ 82 µM) | 6.25 µg/mL (≈ 10.3 µM) | 50 µg/mL (≈ 82 µM) | 50 µg/mL (≈ 82 µM) | 100 µg/mL (≈ 164 µM) | 50 µg/mL (≈ 82 µM) | 1.56 µg/mL (≈ 2.56 µM) | 3.13 µg/mL (≈ 5.13 µM) | 3.13 µg/mL (≈ 5.13 µM) | 1.56 µg/mL (≈ 2.56 µM) | 25 µg/mL (≈ 41 µM) | 6.25 µg/mL (≈ 10.3 µM) | 100 µg/mL (≈ 164 µM) | ≤ 0.1 µg/mL |
